# Values of other authors in patent US20230158084A1, “PROBIOTICS, METABOLITES, AND USES THEREOF” (California Institute of Technology, priority 2018, published 2023).
# Settings: adult mice; cited from earlier work
compound,measurement,value
C1=NCCCC1 [1-piperideine],conversion to 5AV in the brain,rapidly converted to 5AV
same,entry into the brain,can enter the brain
